Where two headings read alike, the source gives them in different places.
Columns and labels:
[1] = EPR spin trapping of HO^. radicals (Fenton's method); details: phosphate buffer pH=7
Description: In this experiment the HO^. radicals were produced by Fenton's method in a 1.1M phosphate buffer at pH=7 in the presence of the […] system. This classical reaction for producing HO^. radicals can be expressed more simply as follows:
H2 O2 +Fe(II)→HO^. +HO-+Fe(III).
The EPR spectrum of the adduct from trapping is recorded approximately 40 s after addition of the ferrous sulphate.
(§1) The stability of these adducts makes it possible to measure the respective coupling constants of the unpaired electron with the nuclei of nitrogen (AN), of hydrogen β to the nitrogen atom (AH) and of phosphorus (AP). These values have been shown together in Table 3 which follows: […]

[2] = EPR spin trapping of O2^.-/HOO^. radicals (hypoxanthine/xanthine oxidase system); details: for EPR detection of trapping adduct: HOO^. radicals, hypoxanthine/xanthine oxidase, 0.1M phosphate buffer
Description: For the production of the HOO^. radicals the hypoxanthine/xanthine oxidase system is employed in a 0.1M phosphate buffer maintained at ambient temperature. The oxygen resulting in the formation of the HOO^. radicals is that initially dissolved in the 0.1M phosphate buffer.
The hypoxanthine/xanthine oxidase system contains 0.1M of a phosphate buffer, […] of hypoxanthine, 1 mM of diethylenetriaminepentaacetic acid (DTPA), 0.4 units cm^-3 of xanthine oxidase (marketed by the company Boehringer Mannheim Biochemica Co.), and 0.1M of the nitrone being tested. The EPR spectra of the adducts from trapping are recorded approximately 40 s after the addition of xanthine oxidase.
as §1

[3] = Kinetics of decomposition (EPR) of superoxide trapping adducts (nitrone-OOH) in phosphate buffer medium; details: for Half-life time: decay of nitrone-OOH adduct, 0.1M phosphate buffer pH=5.8; for order of kinetics of disappearance of the adducts: phosphate buffer pH=5.8; for adduct degradation, times less quickly than the POBN--OOH adducts: phosphate buffer, relative to POBN--OOH
From the text: The adducts from trapping with the superoxide radical were produced using the riboflavin-DTPA (diethylenetriaminepentaacetic acid) system.
This system contains 1M of DTPA, […] of riboflavin and 0.1M of nitrone in a 0.1M phosphate buffer at pH=5.8.
This mixture is transferred into the cell of a Varian E-9 spectrometer. The cell is then irradiated to generate the superoxide radical in situ. At the end of irradiation the decrease in the adducts (nitrone-OOH) is studied using EPR analysis.

physchem = details: for lipophilic/hydrophilic character: from partition coefficients, n-octanol/phosphate buffer; for logD at 1 h: n-octanol/10 mm phosphate buffer, pH 7.4
Description: Biol. Med. 14 (1993) 127. The partition coefficients are defined simply as the ratio of the nitrone concentration in the lipophilic phase (n-octanol) to the nitrone concentration in the aqueous phase.
Identical volumes (2 cm^3) of the octanolic nitrone solution prepared above and of a 10 mM phosphate buffer of pH=7.4 are agitated vigorously at 37° C. for 1 hour and the two phases are then separated by centrifuging (1000 g for 20 s) . The respective nitrone concentrations in each phase are then measured.

[4] = for adduct degradation, times more slowly than the POBN--OOH and PBN--OOH adducts: organic medium (DMF, pyridine), relative to POBN--OOH and PBN--OOH
From the text: The adducts from trapping with the superoxide radical were produced using the lumiflavin-DTPA system in pyridine, or dimethylformamide. This contains […] of DTPA, […] of lumiflavin and 0.1M of nitrone in pyridine or dimethylformamide.
The operating procedure followed for the study of the decrease of the adduct from trapping is the same as above.

[5] = cerebral ischaemia-reperfusion or cerebral aging; cited from earlier work

Row | SMILES | EPR detection of trapping adduct [1] | EPR detection of trapping adduct [2] | Half-life time [3] [min] | order of kinetics of disappearance of the adducts [3] | adduct degradation, times less quickly than the POBN--OOH adducts [3] | lipophilic/hydrophilic character (physchem) | logD at 1 h (physchem) | Half-life time ([4]; DMF) [min] | k ([4]; DMF) | adduct degradation, times more slowly than the POBN--OOH and PBN--OOH adducts [4] | Half-life time ([4]; pyridine) [min] | k ([4]; pyridine) | detection of the radical O2^.- ([2]; EPR spin trapping) | reversal of the harmful effects of oxygen-containing free radicals [5]
1 | CCOP(=O)(OCC)C(C)(C)[N+]([O-])=Cc1ccccc1 [Example 1, Diethyl 1-(N-benzylidene-N-oxy)amino-1-methylethyl-phosphonate] | formation of the adducts | formation of the adducts | 5.12 | first order | approximately 20 times | – | – | – | – | – | – | – | – | –
2 | CCOP(=O)(OCC)C(C)(C)[N+]([O-])=Cc1cc[n+]([O-])cc1 [Example 2, Diethyl 1-[N-oxy-N-[4-(N'-oxypyridyl)formylene]amino]-1-methylethylphosphonate] | – | – | 7.08 | first order | approximately 20 times | lipophilic | 2.29 | 16.2 | 0.714 ± 0.007 10^3 s^-1 | approximately three | 21.05 | 0.549 ± 0.003 10^3 s^-1 | – | –
3 | CC(C)(C)[N+]([O-])=Cc1cc[n+]([O-])cc1 [POBN, α-(1-oxydopyridin-1-ium-4-yl)-N-tert-butylnitrone, reference compound] | – | – | 0.317 | first order | – | – | – | 5.05 | – | – | 5.23 | – | – | –
4 | CC(C)(C)[N+]([O-])=Cc1ccccc1 [PBN, α-phenyl-tert-butylnitrone, reference compound] | No signal could be detected | No signal could be detected | – | – | – | – | – | 4.18 | – | – | 4.42 | – | cannot be carried out | particularly effective
5 | CCOP(=O)(OCC)C(C)(C)[N+]([O-])=Cc1ccc(Cl)cc1 [Example 4, Diethyl 1-[[N-(4-chlorophenyl)formylene]-N-oxyamino]-1-methylethylphosphonate] | – | – | – | – | – | hydrophilic | -0.745 | 15.2 | – | approximately three | 20.17 | 0.573 ± 0.001 10^3 s^-1 | – | –
